Reference: the supplement of paper PMC12463676, “Small-molecule dissolution of stress granules by redox modulation benefits ALS models” (Nature Chemical Biology, 2025)

compound: NC(=O)CCCCC1CCSS1 [lipoamide]; test: thermal stability z-score vs DMSO; higher = more thermally stabilized by treatment; conditions: HeLa; lipoamide concentration 100 µM; arsenate co-treatment: 1 mM arsenate 1 h
Method: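 Cellular thermal proteome profiling in HeLa cells. Cells were treated with 100 µM lipoamide for 1 h, with or without 1 mM arsenate for a further 1 h, then heated to ten temperatures (37-66.3 °C), and soluble protein was quantified by TMT mass spectrometry relative to 0.1% DMSO controls. The thermal stability score (sum of log2 fold changes minus the abundance score) was transformed to a z-score; mean of n = 3 experiments.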
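Note: each temperature applied for 3 min, abundance score taken as mean log2 fold change at the two lowest temperatures, z-score obtained by mean subtraction and division by SD.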

Chain of UniProt Q8IZE3 (Q8IZE3 whole entry): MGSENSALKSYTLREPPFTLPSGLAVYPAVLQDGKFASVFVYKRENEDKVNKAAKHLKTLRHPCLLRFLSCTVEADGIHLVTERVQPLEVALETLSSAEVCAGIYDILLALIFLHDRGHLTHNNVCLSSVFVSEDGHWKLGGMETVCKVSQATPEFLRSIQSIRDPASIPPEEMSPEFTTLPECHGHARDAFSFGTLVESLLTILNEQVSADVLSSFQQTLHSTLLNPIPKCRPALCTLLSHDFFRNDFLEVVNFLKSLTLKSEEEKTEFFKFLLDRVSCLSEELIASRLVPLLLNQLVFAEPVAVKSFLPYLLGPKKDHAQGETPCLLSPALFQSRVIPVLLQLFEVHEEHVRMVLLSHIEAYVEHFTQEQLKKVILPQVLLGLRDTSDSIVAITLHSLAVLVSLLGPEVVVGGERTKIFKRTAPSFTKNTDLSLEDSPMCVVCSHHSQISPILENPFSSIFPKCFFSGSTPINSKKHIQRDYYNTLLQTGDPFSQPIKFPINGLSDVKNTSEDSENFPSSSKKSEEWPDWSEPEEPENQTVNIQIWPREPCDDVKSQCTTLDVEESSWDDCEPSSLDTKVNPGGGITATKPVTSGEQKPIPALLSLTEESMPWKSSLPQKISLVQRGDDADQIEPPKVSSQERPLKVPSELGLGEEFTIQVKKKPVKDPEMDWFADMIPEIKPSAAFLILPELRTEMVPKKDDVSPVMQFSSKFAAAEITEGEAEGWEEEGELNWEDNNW
Chain of UniProt Q9H944 (Q9H944 whole entry): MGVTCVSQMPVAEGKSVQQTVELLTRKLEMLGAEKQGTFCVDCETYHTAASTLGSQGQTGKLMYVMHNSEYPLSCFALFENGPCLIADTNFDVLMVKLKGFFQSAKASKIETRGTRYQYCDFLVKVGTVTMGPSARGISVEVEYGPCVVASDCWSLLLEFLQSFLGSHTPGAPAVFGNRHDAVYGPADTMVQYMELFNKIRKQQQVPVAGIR
Chain of UniProt Q96EP5 (Q96EP5 whole entry): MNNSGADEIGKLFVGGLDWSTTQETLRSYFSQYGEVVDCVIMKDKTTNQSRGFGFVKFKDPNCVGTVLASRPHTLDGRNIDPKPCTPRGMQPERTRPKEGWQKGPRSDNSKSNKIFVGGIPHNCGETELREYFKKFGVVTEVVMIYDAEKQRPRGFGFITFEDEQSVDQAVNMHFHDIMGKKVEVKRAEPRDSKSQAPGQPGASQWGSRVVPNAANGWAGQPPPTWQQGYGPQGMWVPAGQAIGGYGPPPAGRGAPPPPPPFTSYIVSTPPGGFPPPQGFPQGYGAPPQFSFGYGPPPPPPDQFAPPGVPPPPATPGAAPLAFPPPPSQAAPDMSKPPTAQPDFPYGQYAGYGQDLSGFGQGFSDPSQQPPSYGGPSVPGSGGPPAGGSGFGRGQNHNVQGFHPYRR
Chain of UniProt Q96G01 (Q96G01 whole entry): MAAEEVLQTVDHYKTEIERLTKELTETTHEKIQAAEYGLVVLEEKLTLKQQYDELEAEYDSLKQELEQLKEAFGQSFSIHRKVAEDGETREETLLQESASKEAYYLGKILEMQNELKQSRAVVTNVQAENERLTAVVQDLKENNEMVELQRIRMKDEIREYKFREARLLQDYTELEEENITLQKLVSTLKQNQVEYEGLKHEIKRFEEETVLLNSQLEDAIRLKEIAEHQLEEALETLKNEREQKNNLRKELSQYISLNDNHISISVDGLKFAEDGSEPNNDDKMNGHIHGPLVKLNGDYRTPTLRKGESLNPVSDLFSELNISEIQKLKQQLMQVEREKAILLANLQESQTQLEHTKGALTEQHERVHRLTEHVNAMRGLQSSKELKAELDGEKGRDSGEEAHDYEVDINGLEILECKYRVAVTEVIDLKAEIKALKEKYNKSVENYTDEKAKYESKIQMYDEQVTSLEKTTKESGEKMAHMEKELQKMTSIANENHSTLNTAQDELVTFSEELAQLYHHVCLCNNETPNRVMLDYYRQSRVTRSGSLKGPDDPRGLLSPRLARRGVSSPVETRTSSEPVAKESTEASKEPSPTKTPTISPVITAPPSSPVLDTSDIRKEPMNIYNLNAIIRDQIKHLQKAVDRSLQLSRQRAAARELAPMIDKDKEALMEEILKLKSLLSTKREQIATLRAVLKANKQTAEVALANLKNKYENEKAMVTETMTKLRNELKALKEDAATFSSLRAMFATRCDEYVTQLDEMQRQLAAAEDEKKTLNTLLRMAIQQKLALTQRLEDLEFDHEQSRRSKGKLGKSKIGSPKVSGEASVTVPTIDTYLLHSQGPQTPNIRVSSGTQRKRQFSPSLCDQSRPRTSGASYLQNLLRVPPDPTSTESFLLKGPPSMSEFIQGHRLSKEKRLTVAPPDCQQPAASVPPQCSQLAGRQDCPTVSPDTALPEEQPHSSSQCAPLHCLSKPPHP
Chain of UniProt Q53T59 (Q53T59 whole entry): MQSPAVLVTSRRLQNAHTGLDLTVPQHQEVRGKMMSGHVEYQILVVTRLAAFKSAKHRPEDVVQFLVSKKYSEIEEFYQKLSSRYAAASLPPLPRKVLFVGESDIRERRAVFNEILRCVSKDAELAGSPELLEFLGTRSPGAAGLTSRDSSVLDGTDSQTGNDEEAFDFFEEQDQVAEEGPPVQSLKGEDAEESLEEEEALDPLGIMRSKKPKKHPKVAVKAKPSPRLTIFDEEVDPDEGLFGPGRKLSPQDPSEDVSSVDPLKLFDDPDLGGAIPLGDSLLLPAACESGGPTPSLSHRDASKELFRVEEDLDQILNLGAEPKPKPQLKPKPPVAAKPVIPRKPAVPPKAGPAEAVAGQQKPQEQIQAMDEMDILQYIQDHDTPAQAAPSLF
Chain of UniProt Q3ZCW2 (Q3ZCW2 whole entry): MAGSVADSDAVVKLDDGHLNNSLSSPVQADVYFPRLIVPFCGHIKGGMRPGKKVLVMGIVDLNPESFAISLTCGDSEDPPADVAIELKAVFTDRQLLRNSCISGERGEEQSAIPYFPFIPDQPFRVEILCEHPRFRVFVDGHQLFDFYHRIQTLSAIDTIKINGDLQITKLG
Chain of UniProt Q9NYF8 (Q9NYF8 whole entry): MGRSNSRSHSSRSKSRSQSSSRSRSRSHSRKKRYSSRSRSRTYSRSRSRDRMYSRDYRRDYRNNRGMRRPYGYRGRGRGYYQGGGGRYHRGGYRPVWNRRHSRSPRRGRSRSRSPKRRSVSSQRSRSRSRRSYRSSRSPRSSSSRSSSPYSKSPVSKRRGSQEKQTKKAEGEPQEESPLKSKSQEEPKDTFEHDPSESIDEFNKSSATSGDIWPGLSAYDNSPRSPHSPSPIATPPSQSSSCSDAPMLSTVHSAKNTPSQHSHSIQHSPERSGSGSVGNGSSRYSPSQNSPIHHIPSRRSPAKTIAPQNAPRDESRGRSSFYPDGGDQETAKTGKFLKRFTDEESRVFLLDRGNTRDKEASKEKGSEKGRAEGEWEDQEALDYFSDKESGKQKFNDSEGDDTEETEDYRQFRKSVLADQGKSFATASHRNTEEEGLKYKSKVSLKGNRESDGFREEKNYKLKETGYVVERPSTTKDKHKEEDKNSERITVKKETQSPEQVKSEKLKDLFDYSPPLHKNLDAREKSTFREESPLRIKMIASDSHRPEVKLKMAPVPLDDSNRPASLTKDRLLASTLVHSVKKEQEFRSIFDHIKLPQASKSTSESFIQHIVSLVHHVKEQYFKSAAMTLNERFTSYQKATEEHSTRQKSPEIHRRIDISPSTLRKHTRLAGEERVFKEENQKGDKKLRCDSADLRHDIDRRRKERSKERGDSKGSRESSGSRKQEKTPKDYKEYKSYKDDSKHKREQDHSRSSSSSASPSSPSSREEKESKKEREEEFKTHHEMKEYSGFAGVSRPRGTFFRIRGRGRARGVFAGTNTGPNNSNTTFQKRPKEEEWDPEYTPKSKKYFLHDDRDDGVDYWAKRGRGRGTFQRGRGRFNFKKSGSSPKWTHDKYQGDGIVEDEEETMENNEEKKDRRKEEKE
Chain of UniProt Q9BZL1 (Q9BZL1 whole entry): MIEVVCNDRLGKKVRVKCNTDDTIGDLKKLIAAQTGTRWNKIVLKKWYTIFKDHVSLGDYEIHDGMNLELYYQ
Chain of UniProt Q9UBQ7 (Q9UBQ7 whole entry): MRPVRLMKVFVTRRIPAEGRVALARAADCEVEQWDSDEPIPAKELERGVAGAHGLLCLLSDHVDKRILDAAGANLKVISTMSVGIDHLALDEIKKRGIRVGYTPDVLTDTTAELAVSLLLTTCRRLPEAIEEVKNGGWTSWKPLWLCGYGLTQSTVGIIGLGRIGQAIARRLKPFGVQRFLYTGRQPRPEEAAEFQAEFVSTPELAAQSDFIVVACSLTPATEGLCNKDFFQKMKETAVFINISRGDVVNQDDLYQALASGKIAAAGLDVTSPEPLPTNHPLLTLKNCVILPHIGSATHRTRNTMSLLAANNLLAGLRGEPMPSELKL
Chain of UniProt Q14498 (Q14498 whole entry): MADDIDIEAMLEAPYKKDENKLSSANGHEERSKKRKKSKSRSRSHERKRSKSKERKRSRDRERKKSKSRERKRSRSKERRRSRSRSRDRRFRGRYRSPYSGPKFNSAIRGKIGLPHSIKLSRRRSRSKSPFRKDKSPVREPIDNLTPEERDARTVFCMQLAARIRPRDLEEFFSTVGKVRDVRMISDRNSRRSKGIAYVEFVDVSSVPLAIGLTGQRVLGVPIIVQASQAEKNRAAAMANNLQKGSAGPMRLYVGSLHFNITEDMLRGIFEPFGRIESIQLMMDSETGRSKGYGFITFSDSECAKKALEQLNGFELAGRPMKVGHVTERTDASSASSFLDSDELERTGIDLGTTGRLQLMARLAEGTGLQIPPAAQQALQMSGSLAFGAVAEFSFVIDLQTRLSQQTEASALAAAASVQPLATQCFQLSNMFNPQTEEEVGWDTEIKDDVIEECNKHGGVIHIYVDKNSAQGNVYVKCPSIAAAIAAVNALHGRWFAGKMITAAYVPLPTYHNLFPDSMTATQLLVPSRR
Chain of UniProt Q8WUR7 (Q8WUR7 whole entry): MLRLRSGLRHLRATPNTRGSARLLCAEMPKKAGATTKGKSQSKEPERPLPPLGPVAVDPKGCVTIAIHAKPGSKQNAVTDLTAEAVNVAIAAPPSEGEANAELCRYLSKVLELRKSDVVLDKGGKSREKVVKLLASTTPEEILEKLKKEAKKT

Target	thermal stability z-score
VAMP8 (UniProt Q9BV40)	1.3
DAZAP1 (UniProt Q96EP5)	1.15
RBM39 (UniProt Q14498)	-0.398
EIF3D (UniProt O15371)	-0.0633
SFXN1 (UniProt Q9H9B4)	0.607
LGALSL (UniProt Q3ZCW2)	0.209
MED20 (UniProt Q9H944)	0.506
BRD4 (UniProt O60885)	0.496
LENG9 (UniProt Q96B70)	-0.216
RHOT2 (UniProt Q8IXI1)	-0.832
MTMR2 (UniProt Q13614)	0.88
BICD1 (UniProt Q96G01)	-1.17
GTF3C1 (UniProt Q12789)	0.0666
C15ORF40 (UniProt Q8WUR7)	0.334
SCPEP1 (UniProt Q9HB40)	-0.372
SEC23IP (UniProt Q9Y6Y8)	-0.784
MAP4 (UniProt P27816)	0.0996
ACSF2 (UniProt Q96CM8)	-0.634
SCYL3 (UniProt Q8IZE3)	-0.406
FUS (UniProt P35637)	0.844
GRHPR (UniProt Q9UBQ7)	-0.261
UBL5 (UniProt Q9BZL1)	-0.115
ATP13A3 (UniProt Q9H7F0)	-0.563
BCLAF1 (UniProt Q9NYF8)	1.93
TARBP2 (UniProt Q15633)	0.357
NAV1 (UniProt Q8NEY1)	-0.0334
HS1BP3 (UniProt Q53T59)	-0.135
HERC1 (UniProt Q15751)	-0.83

Target	thermal stability z-score
TRIT1 (UniProt Q9H3H1)	-0.0696
AMD1 (UniProt P17707)	0.96
ELMSAN1 (UniProt Q6PJG2)	0.273
MANEAL (UniProt Q5VSG8)	-0.276
SSNA1 (UniProt O43805)	1.6
CHD8 (UniProt Q9HCK8)	-0.13
GOLM1 (UniProt Q8NBJ4)	0.000985
SREBF1 (UniProt P36956)	-0.33
RIPK1 (UniProt Q13546)	-0.595
TBRG4 (UniProt Q969Z0)	-0.625
DIP2A (UniProt Q14689)	0.82
SMIM12 (UniProt Q96EX1)	-0.371
PDIA6 (UniProt Q15084)	-2.44
LMNB1 (UniProt P20700)	2.11
ANTXR1 (UniProt Q9H6X2)	0.0337
RPS20 (UniProt P60866)	1.14
IDI1 (UniProt Q13907)	1.01
NSUN2 (UniProt Q08J23)	-1.4
UQCRC1 (UniProt P31930)	1.43
FMNL1 (UniProt O95466)	-0.412
RAB1B (UniProt Q9H0U4)	0.238
CAMK2G (UniProt Q13555)	-0.504
TMCO1 (UniProt Q9UM00)	0.0581
GSPT1 (UniProt P15170)	-0.00711
NNMT (UniProt P40261)	1.79
SEC16A (UniProt O15027)	0.237
GDPD1 (UniProt Q8N9F7)	-0.226

same assay, conditions: HeLa; lipoamide concentration 100 µM; arsenate co-treatment: none

Target	thermal stability z-score
VAMP8 (UniProt Q9BV40)	1.28
DAZAP1 (UniProt Q96EP5)	1.07
RBM39 (UniProt Q14498)	0.0967
EIF3D (UniProt O15371)	0.0556
SFXN1 (UniProt Q9H9B4)	0.214
LGALSL (UniProt Q3ZCW2)	0.257
MED20 (UniProt Q9H944)	-0.154
BRD4 (UniProt O60885)	0.462
LENG9 (UniProt Q96B70)	-0.193
RHOT2 (UniProt Q8IXI1)	-0.929
MTMR2 (UniProt Q13614)	-0.108
BICD1 (UniProt Q96G01)	-1.22
GTF3C1 (UniProt Q12789)	-0.0357
C15ORF40 (UniProt Q8WUR7)	-0.344
SCPEP1 (UniProt Q9HB40)	0.187
SEC23IP (UniProt Q9Y6Y8)	-1.16
MAP4 (UniProt P27816)	0.243
ACSF2 (UniProt Q96CM8)	-0.524
SCYL3 (UniProt Q8IZE3)	-0.146
FUS (UniProt P35637)	1.27
GRHPR (UniProt Q9UBQ7)	0.411
UBL5 (UniProt Q9BZL1)	-0.0438
ATP13A3 (UniProt Q9H7F0)	0.206
BCLAF1 (UniProt Q9NYF8)	0.229
TARBP2 (UniProt Q15633)	0.542
NAV1 (UniProt Q8NEY1)	0.0173
HS1BP3 (UniProt Q53T59)	0.097
